For assay [1], the target named is T1, 5-HT1A receptor (Rattus norvegicus, UniProt P19327).
T1 construct: rat hippocampal membrane homogenated; from tissue; host or cells: rat hippocampus, membrane homogenate
T1 sequence (P19327 1-422): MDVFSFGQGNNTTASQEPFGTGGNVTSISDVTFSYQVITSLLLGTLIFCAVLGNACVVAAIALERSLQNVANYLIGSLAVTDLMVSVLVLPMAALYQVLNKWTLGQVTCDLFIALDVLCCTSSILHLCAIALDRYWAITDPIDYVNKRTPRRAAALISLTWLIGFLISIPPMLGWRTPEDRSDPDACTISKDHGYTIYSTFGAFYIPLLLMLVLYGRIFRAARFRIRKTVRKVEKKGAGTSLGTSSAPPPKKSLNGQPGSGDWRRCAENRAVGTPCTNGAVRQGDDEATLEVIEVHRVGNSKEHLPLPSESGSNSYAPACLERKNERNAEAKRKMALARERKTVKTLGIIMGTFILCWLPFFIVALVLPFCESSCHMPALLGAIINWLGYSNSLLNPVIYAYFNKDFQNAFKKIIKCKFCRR
The assay is described as follows: 5-HT1A receptor binding activity in rat hippocampal membrane homogenate. The protocol:
The compounds of the invention are tested for 5-HT1A receptor binding activity in rat hippocampal membrane homogenated by the method of B. S. Alexander and M. D. Wood, J Pharm Pharmacol, 1988, 40, 888-891.

The target in assay [2] is T2, 5-HT1A receptor (Cavia porcellus, UniProt A0A286Y074).
T2 construct: guinea-pig ileum in vitro; from tissue; host or cells: guinea-pig ileum, isolated tissue
T2 sequence (A0A286Y074 1-421): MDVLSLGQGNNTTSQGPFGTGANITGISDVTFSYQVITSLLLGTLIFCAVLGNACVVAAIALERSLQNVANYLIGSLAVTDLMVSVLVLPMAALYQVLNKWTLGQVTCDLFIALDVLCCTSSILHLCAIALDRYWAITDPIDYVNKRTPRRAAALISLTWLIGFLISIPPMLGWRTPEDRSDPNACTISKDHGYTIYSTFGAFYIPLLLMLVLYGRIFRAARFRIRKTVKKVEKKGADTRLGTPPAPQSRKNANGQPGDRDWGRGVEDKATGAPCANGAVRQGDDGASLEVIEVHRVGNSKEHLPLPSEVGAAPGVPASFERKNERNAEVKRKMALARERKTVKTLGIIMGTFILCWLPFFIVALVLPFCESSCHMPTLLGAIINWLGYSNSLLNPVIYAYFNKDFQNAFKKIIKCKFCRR
The assay is described as follows: 5-HT1A receptor antagonism: antagonism of 5-carboxamido-tryptamine in the guinea-pig ileum in vitro. As to conditions: read-out: pA2, antagonism of 5-carboxamido-tryptamine (converted). The protocol: The compounds are tested for 5-HT1A receptor antagonism activity in a test involving the antagonism of 5-carboxamido-tryptamine in the guinea-pig ileum in vitro (based upon the procedure of Fozard et al, Br. J. Pharmac., 1985, 86, 601P).

Usually IC50 stands for the concentration that inhibits the measured activity by half. Low values mean inhibition by little substance, high ones a need for much substance. `O=C(C(CCN1CCN(c2cccc3c2OCCO3)CC1)c1ccccc1)N1CCCCCC1` (centres unmarked) [Example 8, 2,3,4,5,6,7-Hexahydro-1-{4-[1-[4-(2,3-dihydro-1,4-benzodioxin-5-yl)piperazinyl]]-2-phenylbutyryl}-1H-azepine]: in assay [1], the IC50 came out at 0.6 nM. Besides, in assay [2], the Kb was 0.398 nM.

These data come from patent publication US5710149A, “Piperazine derivatives as 5-ht antagonists” (John Wyeth & Brother, Ltd., priority 1991, dated 1998).
